Each structure is given as a SMILES string.

Our source for the melting point values is US8293768B2, “Organic compounds” (Novartis AG, priority 2006, dated 2012).

Consider `Cc1nc(-n2cnn(Cc3ccc(F)cc3)c2=O)sc1C(=O)NCc1cnn(C)c1` [Example 21.10, 2-(1-(4-fluorobenzyl)-5-oxo-1H-1,2,4-triazol-4(5H)-yl)-4-methyl-N-((1-methyl-1H-pyrazol-4-yl)methyl)thiazole-5-carboxamide], for which the melting point (in general, the temperature of the solid-liquid transition) lay in the range of 205 to 206 °C.

`Cc1ncc(CNC(=O)c2sc(-n3cnn(Cc4ccc(F)cc4)c3=O)nc2C)s1` [Example 21.11, 2-(1-(4-fluorobenzyl)-5-oxo-1H-1,2,4-triazol-4(5H)-yl)-4-methyl-N-((2-methylthiazol-5-yl)methyl)thiazole-5-carboxamide] had a melting point of 176 to 177 °C.

Compound `Cc1nc(-n2cnn(Cc3ccc(F)cc3)c2=O)sc1C(=O)NCc1nccs1` [Example 21.12, 2-(1-(4-fluorobenzyl)-5-oxo-1H-1,2,4-triazol-4(5H)-yl)-4-methyl-N-(thiazol-2-ylmethyl)thiazole-5-carboxamide] came in with a melting point of 189 to 190 °C.

As for `Cc1nc(-n2cnn(Cc3ccc(F)cc3)c2=O)sc1C(=O)NCc1cn(C)cn1` [Example 21.14, 2-(1-(4-fluorobenzyl)-5-oxo-1H-1,2,4-triazol-4(5H)-yl)-4-methyl-N-((1-methyl-1H-imidazol-4-yl)methyl)thiazole-5-carboxamide], the melting point is 225 to 226 °C.

On to `Cc1cnc(CNC(=O)c2sc(-n3cnn(Cc4ccc(F)cc4)c3=O)nc2C)cn1` [Example 21.15, 2-(1-(4-fluorobenzyl)-5-oxo-1H-1,2,4-triazol-4(5H)-yl)-4-methyl-N-((5-methylpyrazin-2-yl)methyl)thiazole-5-carboxamide], for which the melting point was 188 to 189 °C.

`Cc1nc(N2CCNC2=O)sc1C(=O)NCc1ccccc1` [Example 22, N-benzyl-4-methyl-2-(2-oxoimidazolidin-1-yl)thiazole-5-carboxamide]: the melting point is 226 to 228 °C.

The compound `Cc1nc(N2CCN(Cc3ccc(C#N)cc3)C2=O)sc1C(=O)NCc1ccccc1` [Example 23, N-benzyl-2-(3-(4-cyanobenzyl)-2-oxoimidazolidin-1-yl)-4-methylthiazole-5-carboxamide] registered a melting point of 176 to 178 °C.

On to `Cc1nc(N2CCN(Cc3ccccc3C(F)(F)F)C2=O)sc1C(=O)NCc1ccccc1` [Example 23.1, N-benzyl-4-methyl-2-(2-oxo-3-(2-(trifluoromethyl)benzyl)imidazolidin-1-yl)thiazole-5-carboxamide], for which the melting point fell in the range of 138 to 140 °C.

Regarding `Cc1nc(N2CCN(Cc3cccc(F)c3)C2=O)sc1C(=O)NCc1ccccc1` [Example 23.3, N-benzyl-2-(3-(3-fluorobenzyl)-2-oxoimidazolidin-1-yl)-4-methylthiazole-5-carboxamide], the melting point was 155 to 156 °C.

Compound `Cc1nc(N2CCN(Cc3ccc(C(F)(F)F)o3)C2=O)sc1C(=O)NCc1ccccc1` [Example 23.4, N-benzyl-4-methyl-2-(2-oxo-3-((5-(trifluoromethyl)furan-2-yl)methyl)imidazolidin-1-yl)thiazole-5-carboxamide] gave a melting point of 143 to 145 °C.

As to `Cc1nc(N2CCN(Cc3nc(C)n(-c4ccccc4)n3)C2=O)sc1C(=O)NCc1ccccc1` [Example 23.5, N-benzyl-4-methyl-2-(3-((5-methyl-1-phenyl-1H-1,2,4-triazol-3-yl)methyl)-2-oxoimidazolidin-1-yl)thiazole-5-carboxamide], the melting point fell in the range of 139 to 141 °C.

`Cc1nc(N2CCN(CCc3c[nH]c4ccccc34)C2=O)sc1C(=O)NCc1ccccc1` [Example 23.7, 2-(3-(2-(1H-indol-3-yl)ethyl)-2-oxoimidazolidin-1-yl)-N-benzyl-4-methylthiazole-5-carboxamide] registered a melting point of 215 to 217 °C.

As for `COC(=O)c1cccc(CN2CCN(c3nc(C)c(C(=O)NCc4ccccc4)s3)C2=O)c1` [Example 23.9, methyl 3-((3-(5-(benzylcarbamoyl)-4-methylthiazol-2-yl)-2-oxoimidazolidin-1-yl)methyl)benzoate], the melting point was in the range of 49 to 51 °C.

Compound `COC(=O)c1ccccc1CN1CCN(c2nc(C)c(C(=O)NCc3ccccc3)s2)C1=O` [Example 23.10, methyl 2-((3-(5-(benzylcarbamoyl)-4-methylthiazol-2-yl)-2-oxoimidazolidin-1-yl)methyl)benzoate] gave a melting point of 130 to 133 °C.

`COC(=O)c1cnc(N2CCN(CC3CC3)C2=O)s1` [Example 24, methyl 2-(3-(cyclopropylmethyl)-2-oxoimidazolidin-1-yl)thiazole-5-carboxylate] gave a melting point of 124 to 126 °C.

Consider `Cc1nc(N2CCN(Cc3cccc(C(=O)O)c3)C2=O)sc1C(=O)NCc1ccccc1` [Example 25, 3-((3-(5-(benzylcarbamoyl)-4-methylthiazol-2-yl)-2-oxoimidazolidin-1-yl)methyl)benzoic acid], for which the melting point fell in the range of 120 to 123 °C.

Compound `O=C(O)c1cnc(N2CCN(CC3CC3)C2=O)s1` [Example 25.1, 2-(3-(cyclopropylmethyl)-2-oxoimidazolidin-1-yl)thiazole-5-carboxylic acid] showed a melting point of 250 to 252 °C.

Consider `Cc1nc(N2CCN(Cc3cccc(C(=O)O)c3)C2=O)sc1C(=O)NCc1ccccc1` [Example 25.3, 3-((3-(5-(benzylcarbamoyl)-4-methylthiazol-2-yl)-2-oxoimidazolidin-1-yl)methyl)benzoic acid], for which the melting point lay within 143 to 145 °C.

On to `Cc1nc(N2CCN(Cc3ccccc3C(=O)O)C2=O)sc1C(=O)NCc1ccccc1` [Example 25.4, 2-((3-(5-(benzylcarbamoyl)-4-methylthiazol-2-yl)-2-oxoimidazolidin-1-yl)methyl)benzoic acid], for which the melting point was in the range of 153 to 156 °C.

As for `O=C(NCc1cccnc1)c1cnc(N2CCN(CC3CC3)C2=O)s1` [Example 26, 2-(3-(cyclopropylmethyl)-2-oxoimidazolidin-1-yl)-N-(pyridin-3-ylmethyl)thiazole-5-carboxamide], the melting point fell in the range of 190 to 192 °C.

For the compound `Cc1nc(N2CCN(Cc3ccccc3)/C2=N\C#N)sc1C(=O)NCc1ccccc1` [Example 27, N-benzyl-2-(3-benzyl-2-(cyanoimino)imidazolidin-1-yl)-4-methylthiazole-5-carboxamide], the melting point is 226 to 228 °C.

Compound `Cc1nc(N2CCN(Cc3ccccc3)S2(=O)=O)sc1C(=O)NCc1ccccc1` [Example 27.1, N-benzyl-2-(5-benzyl-1,1-dioxido-1,2,5-thiadiazolidin-2-yl)-4-methyl-1,3-thiazole-5-carboxamide] showed a melting point of 135 to 137 °C.

With `Cc1nc(N2CCN(Cc3ccccc3)S2(=O)=O)sc1C(=O)NCc1cccnc1` [Example 27.2, 2-(5-benzyl-1,1-dioxido-1,2,5-thiadiazolidin-2-yl)-4-methyl-N-(pyridin-3-ylmethyl)-1,3-thiazole-5-carboxamide], the melting point fell in the range of 140 to 142 °C.

The compound `Cc1nc(N2CCN(Cc3ccccc3)C2=N)sc1C(=O)NCc1ccc(F)cc1` [Example 27.4, 2-(3-benzyl-2-iminoimidazolidin-1-yl)-N-(4-fluorobenzyl)-4-methylthiazole-5-carboxamide] registered a melting point of 142 to 144 °C.

In turn, `Cc1nc(N2CCN(Cc3ccccc3)C2=N)sc1C(=O)NCc1ccc(F)c(F)c1` [Example 27.5, 2-(3-benzyl-2-iminoimidazolidin-1-yl)-N-(3,4-difluorobenzyl)-4-methylthiazole-5-carboxamide] gave a melting point of 140 to 142 °C.

In turn, `Cc1cc(-n2cnn(Cc3ccc(F)cc3)c2=O)sc1C(=O)NCc1cccnc1` [Example 31, 5-(1-(4-fluorobenzyl)-5-oxo-1H-1,2,4-triazol-4(5H)-yl)-3-methyl-N-(pyridin-3-ylmethyl)thiophene-2-carboxamide] came in with a melting point of 180 to 182 °C.

Take `Cc1cc(-n2cnn(Cc3ccccc3)c2=O)sc1C(=O)NCc1cccnc1` [Example 31.1, 5-(1-benzyl-5-oxo-1H-1,2,4-triazol-4(5H)-yl)-3-methyl-N-(pyridin-3-ylmethyl)thiophene-2-carboxamide]: the melting point lay within 180 to 181 °C.

In turn, `Cc1cc(-n2cnn(CCC3CC3)c2=O)sc1C(=O)NCc1cccnc1` [Example 31.2, 5-(1-(2-cyclopropylethyl)-5-oxo-1H-1,2,4-triazol-4(5H)-yl)-3-methyl-N-(pyridin-3-ylmethyl)thiophene-2-carboxamide] had a melting point of 148 to 150 °C.

For the compound `Cc1cc(-n2cnn(Cc3ccc(C(F)(F)F)cc3)c2=O)sc1C(=O)NCc1cccnc1` [Example 31.3, 3-methyl-5-(5-oxo-1-(4-(trifluoromethyl)benzyl)-1H-1,2,4-triazol-4(5H)-yl)-N-(pyridin-3-ylmethyl)thiophene-2-carboxamide], the melting point is 176 to 178 °C.

`Cc1cc(-n2cnn(Cc3ccc(S(C)(=O)=O)cc3)c2=O)sc1C(=O)NCc1cccnc1` [Example 31.4, 3-methyl-5-(1-(4-(methylsulfonyl)benzyl)-5-oxo-1H-1,2,4-triazol-4(5H)-yl)-N-(pyridin-3-ylmethyl)thiophene-2-carboxamide]: the melting point is 208 to 210 °C.

Compound `Cc1cnc(CNC(=O)c2sc(-n3cnn(Cc4ccc(F)cc4)c3=O)cc2C)cn1` [Example 31.5, 5-(1-(4-fluorobenzyl)-5-oxo-1H-1,2,4-triazol-4(5H)-yl)-3-methyl-N-((5-methylpyrazin-2-yl)methyl)thiophene-2-carboxamide] returned a melting point of 189 to 191 °C.

Regarding `Cc1cc(-n2cnn(Cc3ccc(F)cc3)c2=O)sc1C(=O)NCc1ncco1` [Example 31.6, 5-(1-(4-fluorobenzyl)-5-oxo-1H-1,2,4-triazol-4(5H)-yl)-3-methyl-N-(oxazol-2-ylmethyl)thiophene-2-carboxamide], the melting point was in the range of 163 to 165 °C.

Consider `Cc1cc(-n2cnn(Cc3ccc(F)cc3)c2=O)sc1C(=O)NCc1cnn(C)c1` [Example 31.7, 5-(1-(4-fluorobenzyl)-5-oxo-1H-1,2,4-triazol-4(5H)-yl)-3-methyl-N-((1-methyl-1H-pyrazol-4-yl)methyl)thiophene-2-carboxamide], for which the melting point lay within 168 to 170 °C.

With `Cc1nc(CNC(=O)c2sc(-n3cnn(Cc4ccc(F)cc4)c3=O)cc2C)cs1` [Example 31.8, 5-(1-(4-fluorobenzyl)-5-oxo-1H-1,2,4-triazol-4(5H)-yl)-3-methyl-N-((2-methylthiazol-4-yl)methyl)thiophene-2-carboxamide], the melting point lay in the range of 148 to 150 °C.
